System: fibroblastes d'un patient souffrant de CMTX
Assay: Abnormal cell nuclei (DAPI staining, Mitocheck classification) in fibroblasts of a CMTX patient
Type: cell-based, humain
Conditions: fibroblasts of the CMTX1 patient treated with clémastine at 10µmole; untreated patient cells about 30%, healthy individual less than 1% (Figure 1)
Text: Les anomalies des noyaux cellulaires sont étudiées en déposant les fiboblastes sur des lames de microscopie et en colorant les noyaux à de l'aide 4',6-diamidino-2-phénylindole, ou DAPI, les rendant ainsi fluorescents. Les anomalies nucléaires sont classées selon la classification établie par le Mitocheck, à savoir : i) les noyaux mal formés, ii) les noyaux polylobés, iii) les noyaux non séparés et iv) les autres.

Structure (SMILES): CN1CCC[C@@H]1CCO[C@](C)(c1ccccc1)c1ccc(Cl)cc1 [clémastine]
- pourcentage des noyaux anormaux: ~5%

Source: patent EP3797769A1, “COMPOSITION FOR THERAPEUTIC USE” (Fontès, M. Michel, priority 2019, dated 2021)
